Tested on: Conditioned Avoidance Response (CAR)
Experiment: Conditioned Avoidance Response (CAR) test in mice, oral
Type: in vivo, mouse (female white mice)
Conditions: female white mice, moving average method
Protocol: The paradigm used for predicting tranquilizer activity was a Conditioned Avoidance Response (CAR) test in mice. Female white mice, 19-23 g, were used. The apparatus modified from Bovet, D. et al., Science, 163, 139-149 (1969), was a one-way shuttlebox with 0.4 mA scrambled electric footshock as unconditioned stimulus (US) and a 6 watt white light plus a relay buzzer as conditioned stimuli (CS). Mice were conditioned by three sets of 1-5 trials on day 1, then were fasted for 17-21 hours. The conditioned mice were tested for retention of the conditioned response on day 2, and then were dosed orally with test drug at doses such as 0, 1, 3, 9, 27 and 81 mg/kg. ED50 values (doses at which 50% of the animals would be expected to show response failure) were calculated by the moving average method [Thompson, W. R., Bact. Rev., 11, 115 (1947)].

SMILES | Mouse CAR ED50 (avoidance ED50, dose at which 50% of the animals would be expected to show response failure)
O=C1Nc2cccc3c4c(n(c23)-c2ccccc21)CCN(CC1CCCCC1)C4 [Example 38] | 56.2 mg/kg
CN1CCc2c(c3cc(Cl)cc4c3n2-c2ccc(Cl)cc2C(=O)N4)C1 [Example 14] | 31 mg/kg
CCN1CCc2c(c3cccc4c3n2-c2ccccc2C(=O)N4)C1 [Example 32] | 27 mg/kg
O=C1Nc2cccc3c4c(n(c23)-c2ccc(Cl)cc21)CCNC4 [Example 7] | 25 mg/kg
Clc1ccc2c(c1)CNc1cccc3c1N2[C@@H]1CCN(CCc2ccccc2)C[C@@H]31 (relative stereo) [Example 114] | 5.2 mg/kg
